Data: patent publication US6313111A, “Substituted 6H-1,3,4-thiadiazine-2-amines, the use thereof as anaesthetising, cardiovascular and hypometabolic agents, and pharmaceutical composition containing them” (priority 1998, dated 2001)
Where a name gives a salt, the structure may show the parent alone.

Test: rectal (body) temperature of mice measured with medicinal electrothermometer TREM-1
Type: in vivo, mice of the BALB line
Experimental: In all cases tests were carried out on mice of the BALB line of 3-4 month age. […] In the case of water-soluble compounds, aqueous solutions of the test compounds were injected intraperitoneally (i.p.), while water-insoluble compounds were introduced orally (p.o.).
Rectal temperature changes (absolute magnitues in ° C.) were measured using a medicinal electrothermometer TREM-1 (Table 1). The rate of oxygen consumption was monitored by measuring concentration of oxygen in a closed testing unit with optic-acoustic gas analyser MN 5130. The data on oxygen consumption are given in percents relative to the starting content of oxygen taken as 100%. (Table 2).
Rectal temperature of mice was followed in dynamics after 5, 15, 30, 60, 120, 180, 240, 300, and 360 minutes (Table 3). […] The same decrease in temperature at 190 mg/kg dosage was reached after 15 minutes; in 1.5 hours it reached 22-25° C. and maintained this level over the next 5 hours, that is 13-17° C. below the initial value. After one day, body temperature was restored to the value of 94-96% of initial.

## c1ccc(C2=NN=C(N3CCOCC3)SC2)cc1 [Compound 1, 2-Morpholino-5-phenyl-6H-1,3,4-thiadiazine, hydrobromide]
10.0 mg/kg i.p., 0 min
  body temperature (T): 37.5 ± 0.2 °C
10.0 mg/kg i.p., 10 min
  body temperature (T): 37.8 ± 0.1 °C
10.0 mg/kg i.p., 20 min
  body temperature (T): 37.4 ± 0.2 °C
10.0 mg/kg i.p., 30 min
  body temperature (T): 37.3 °C
10.0 mg/kg i.p., 40 min
  body temperature (T): 37.5 ± 0.1 °C
10.0 mg/kg i.p., 60 min
  body temperature (T): 37.5 ± 0.1 °C
10.0 mg/kg i.p., 90 min
  body temperature (T): 37.4 ± 0.2 °C
10.0 mg/kg i.p., 120 min
  body temperature (T): 36.9 ± 0.1 °C
10.0 mg/kg i.p., 180 min
  body temperature (T): 36.9 ± 0.2 °C
10.0 mg/kg i.p., 210 min
  body temperature (T): 36.4 °C
10.0 mg/kg i.p., 240 min
  body temperature (T): 36.7 ± 0.2 °C
10.0 mg/kg i.p., 270 min
  body temperature (T): 36.7 ± 0.2 °C
10.0 mg/kg i.p., 300 min
  body temperature (T): 36.9 ± 0.1 °C
10.0 mg/kg i.p., 330 min
  body temperature (T): 36.8 ± 0.2 °C
10.0 mg/kg i.p., 390 min
  body temperature (T): 36.7 ± 0.2 °C
35.0 mg/kg i.p., 0 min
  body temperature (T): 37.7 ± 0.2 °C
35.0 mg/kg i.p., 10 min
  body temperature (T): 37.2 ± 0.2 °C
35.0 mg/kg i.p., 20 min
  body temperature (T): 36.6 ± 0.4 °C
35.0 mg/kg i.p., 30 min
  body temperature (T): 35.9 °C
35.0 mg/kg i.p., 40 min
  body temperature (T): 36.6 ± 0.1 °C
35.0 mg/kg i.p., 60 min
  body temperature (T): 37.0 ± 0.3 °C
35.0 mg/kg i.p., 90 min
  body temperature (T): 37.3 ± 0.1 °C
35.0 mg/kg i.p., 120 min
  body temperature (T): 37.1 ± 0.3 °C
35.0 mg/kg i.p., 180 min
  body temperature (T): 36.9 ± 0.2 °C
35.0 mg/kg i.p., 210 min
  body temperature (T): 36.6 ± 0.1 °C
35.0 mg/kg i.p., 240 min
  body temperature (T): 36.9 ± 0.4 °C
35.0 mg/kg i.p., 270 min
  body temperature (T): 36.8 ± 0.1 °C
35.0 mg/kg i.p., 300 min
  body temperature (T): 36.9 ± 0.1 °C
35.0 mg/kg i.p., 330 min
  body temperature (T): 37.2 ± 0.2 °C
35.0 mg/kg i.p., 390 min
  body temperature (T): 37.1 ± 0.1 °C
70.0 mg/kg i.p., 0 min
  body temperature (T): 37.5 ± 0.2 °C
70.0 mg/kg i.p., 10 min
  body temperature (T): 36.2 ± 0.3 °C
70.0 mg/kg i.p., 20 min
  body temperature (T): 35.4 ± 0.5 °C
70.0 mg/kg i.p., 30 min
  body temperature (T): 34.5 °C
70.0 mg/kg i.p., 40 min
  body temperature (T): 35.0 ± 0.9 °C
70.0 mg/kg i.p., 60 min
  body temperature (T): 35.6 ± 0.6 °C
70.0 mg/kg i.p., 90 min
  body temperature (T): 36.1 ± 0.2 °C
70.0 mg/kg i.p., 120 min
  body temperature (T): 37.0 ± 0.2 °C
70.0 mg/kg i.p., 180 min
  body temperature (T): 36.7 ± 0.6 °C
70.0 mg/kg i.p., 210 min
  body temperature (T): 36.9 °C
70.0 mg/kg i.p., 240 min
  body temperature (T): 37.0 ± 0.1 °C
70.0 mg/kg i.p., 270 min
  body temperature (T): 36.6 ± 0.2 °C
70.0 mg/kg i.p., 300 min
  body temperature (T): 37.0 ± 0.1 °C
70.0 mg/kg i.p., 330 min
  body temperature (T): 37.2 ± 0.1 °C
70.0 mg/kg i.p., 390 min
  body temperature (T): 37.1 ± 0.1 °C
140 mg/kg i.p.
  time of maximum drop of body temperature: 40 to 60 min
140.0 mg/kg i.p., 0 min
  body temperature (T): 37.9 ± 0.1 °C
140.0 mg/kg i.p., 10 min
  body temperature (T): 34.5 ± 0.2 °C
140.0 mg/kg i.p., 20 min
  body temperature (T): 32.6 ± 0.4 °C
140.0 mg/kg i.p., 30 min
  body temperature (T): 30.8 °C
140.0 mg/kg i.p., 40 min
  body temperature (T): 30.2 ± 0.1 °C
140.0 mg/kg i.p., 60 min
  body temperature (T): 30.0 ± 0.1 °C
140.0 mg/kg i.p., 90 min
  body temperature (T): 31.5 ± 0.9 °C
140.0 mg/kg i.p., 120 min
  body temperature (T): 33.6 ± 0.7 °C
140.0 mg/kg i.p., 180 min
  body temperature (T): 35.2 ± 0.5 °C
140.0 mg/kg i.p., 210 min
  body temperature (T): 36.1 °C
140.0 mg/kg i.p., 240 min
  body temperature (T): 36.5 ± 0.2 °C
140.0 mg/kg i.p., 270 min
  body temperature (T): 36.6 ± 0.2 °C
140.0 mg/kg i.p., 300 min
  body temperature (T): 36.9 ± 0.1 °C
140.0 mg/kg i.p., 330 min
  body temperature (T): 37.6 ± 0.2 °C
140.0 mg/kg i.p., 390 min
  body temperature (T): 37.2 ± 0.2 °C
140 mg/kg i.p., after 40-60 minutes
  maximum drop of body temperature: 7-8 °C
190 mg/kg (1/2 LD16) i.p., 5 min
  body temperature (T): 34.9 ± 0.0 °C
190 mg/kg (1/2 LD16) i.p., 15 min
  body temperature (T): 30.8 ± 0.2 °C
190 mg/kg i.p.
  time to reach the same decrease in temperature (7-8° C.): 15 min
190.0 mg/kg i.p., 0 min
  body temperature (T): 39.2 ± 0.1 °C
190.0 mg/kg i.p., 10 min
  body temperature (T): 34.9 ± 0.0 °C
